Read-outs that look alike come from different tables or passages of the source.
Experiments:
LU2514 SCLC PDX tumor = assay: Human SCLC PDX model LU2514; type: in vivo, immunocompromised mice; details: D 21, MTD 0.25-0.3 mg/kg once daily oral, median tumor volume (n = 5)
Description: (§1) Twelve human SCLC PDX models (obtained from Crown Biosciences, OncoTest, WuxiAppTec) were evaluated for their responses to talazoparib single agent treatment. PDX tumors were propagated subcutaneously in immunocompromised mice at passage 3 to 13. When tumors reached approximately 150 mm^3 average volume, animals (n=5 per group) were administered orally with vehicle (once daily dose), or talazoparib at the maximum tolerated dose (MTD; 0.25-0.3 mg/kg, once daily). Tumor volume and animal body weight were measured twice weekly until the end of study or until tumor size exceeded 2000 mm^3. Untreated tumor samples were collected from mice. Median tumor volume on Day 21 and beyond after first treatment was used to calculate the change from baseline to evaluate response.

LU65 SCLC PDX tumor = assay: Human SCLC PDX model LU65; type: in vivo, immunocompromised mice; details: D 21, MTD 0.25-0.3 mg/kg once daily oral, median tumor volume (n = 5)
Description: as §1

NCI-H69 SCLC cell line = assay: Cell line cytotoxicity assay (CellTiter Glo), NCI-H69; type: cell-based; details: Homo sapiens, SLFN11 RMA 3.981, read-out: BMN 673 Sensitivity In vitro GI50
Description: (§2) After 24 h, talazoparib at 2000, 400, 80, 16, 3.2, or 0.64 nM in 0.2% DMSO, or cisplatin at 100,000, 2000, 400, 80, 16, or 3.2 nM were added in duplicate, and incubated for an additional 5 or 7 days. Cell survival was determined by CellTiter Glo assay (Promega). Cell growth inhibition was calculated by two methods: (a) the treated cell counts relative to untreated control to obtain IC50 (convention survival fraction method), or (b) doublings from baseline under treatment relative to doublings from baseline without treatment to obtain GI50 (generational method), using GraphPad Prism5. Maximum inhibition levels for each method were also obtained.

38 SCLC cell lines = assay: Cell line cytotoxicity assay (CellTiter Glo), panel of 38 SCLC cell lines; type: cell-based; details: Homo sapiens, 38 SCLC lines, 5 or 7 days incubation, generational method
Description: as §2, with “Various SCLC cell lines (38) were obtained from ATCC (American Type Culture Collection), ECACC (European Collection of Cell Cultures), JCRB (Japanese Collection of Research Bioresources), and CLS Cell Lines Service as shown in Table 1. […] After” for “After”

NCI-H69 SCLC xenograft = assay: Cell line-derived xenograft model NCI-H69; type: in vivo, BALB/c nude mice; details: 0.33 mg/kg, Q1D×28 p.o.
Description: (§3) Human NCI-H1048, NCI-H209, and NCI-H69 SCLC tumor cells were injected subcutaneously in the flanks of BALB/c nude mice. When tumors reached approximately 130 mm^3 average volume, animals (n=8 per group) were treated with vehicle (Q1D×28, p.o.), cisplatin (6 mg/kg, Q6D×2 i.p.), or talazoparib (0.33 mg/kg, Q1D×28 p.o.). Tumor growth and animal body weight were monitored twice per week by standard methods.

CTG-0198 SCLC PDX tumor = assay: Human SCLC PDX model CTG-0198; type: in vivo, immunocompromised mice; details: D 29, MTD 0.25-0.3 mg/kg once daily oral, median tumor volume (n = 5)
Description: as §1

NCI-H209 SCLC xenograft = assay: Cell line-derived xenograft model NCI-H209; type: in vivo, BALB/c nude mice; details: 0.33 mg/kg, Q1D×28 p.o.
Description: as §3

LU1267 SCLC PDX tumor = assay: Human SCLC PDX model LU1267; type: in vivo, immunocompromised mice; details: D 38, MTD 0.25-0.3 mg/kg once daily oral, median tumor volume (n = 5)
Description: as §1

[1] = test system: Twelve human SCLC PDX models; assay: Twelve human SCLC PDX models, response classification; type: in vivo, immunocompromised mice; details: 12 SCLC PDX models; talazoparib at maximum tolerated dose
Description: as §1
Twelve human SCLC PDX models were further tested with talazoparib at maximum tolerated doses compared to a vehicle control.

LXFS 573 SCLC PDX tumor = assay: Human SCLC PDX model LXFS 573; type: in vivo, immunocompromised mice; details: D 21, MTD 0.25-0.3 mg/kg once daily oral, median tumor volume (n = 5)
Description: as §1

LU67 SCLC PDX tumor = assay: Human SCLC PDX model LU67; type: in vivo, immunocompromised mice; details: D 25, MTD 0.25-0.3 mg/kg once daily oral, median tumor volume (n = 5)
Description: as §1

LXFS 2156 SCLC PDX tumor = assay: Human SCLC PDX model LXFS 2156; type: in vivo, immunocompromised mice; details: D 21, MTD 0.25-0.3 mg/kg once daily oral, median tumor volume (n = 5)
Description: as §1

CTG-0199 SCLC PDX tumor = assay: Human SCLC PDX model CTG-0199; type: in vivo, immunocompromised mice; details: D 21, MTD 0.25-0.3 mg/kg once daily oral, median tumor volume (n = 5)
Description: as §1

[2] = test system: LU-01-0547 SCLC PDX tumor; assay: Human SCLC PDX model LU-01-0547; type: in vivo, immunocompromised mice; details: D 83, MTD 0.25-0.3 mg/kg once daily oral, median tumor volume (n = 5)
Description: as §1

NCI-H1048 SCLC cell line = assay: Cell line cytotoxicity assay (CellTiter Glo), NCI-H1048; type: cell-based; details: Homo sapiens, SLFN11 RMA 7.583, read-out: BMN 673 Sensitivity In vitro GI50
Description: as §2

NCI-H209 SCLC cell line = assay: Cell line cytotoxicity assay (CellTiter Glo), NCI-H209; type: cell-based; details: Homo sapiens, SLFN11 RMA 8.794, read-out: BMN 673 Sensitivity In vitro GI50
Description: as §2

NCI-H1048 SCLC xenograft = assay: Cell line-derived xenograft model NCI-H1048; type: in vivo, BALB/c nude mice; details: 0.33 mg/kg, Q1D×28 p.o.
Description: as §3

LXFS 1129 SCLC PDX tumor = assay: Human SCLC PDX model LXFS 1129; type: in vivo, immunocompromised mice; details: D 21, MTD 0.25-0.3 mg/kg once daily oral, median tumor volume (n = 5)
Description: as §1

LXFS 615 SCLC PDX tumor = assay: Human SCLC PDX model LXFS 615; type: in vivo, immunocompromised mice; details: D 21, MTD 0.25-0.3 mg/kg once daily oral, median tumor volume (n = 5)
Description: as §1

LXFS 650 SCLC PDX tumor = assay: Human SCLC PDX model LXFS 650; type: in vivo, immunocompromised mice; details: D 21, MTD 0.25-0.3 mg/kg once daily oral, median tumor volume (n = 5)
Description: as §1

For `Cn1ncnc1[C@H]1c2n[nH]c(=O)c3cc(F)cc(c23)N[C@@H]1c1ccc(F)cc1` [talazoparib], the “Best response: Change from base line (%)” value (LU2514 SCLC PDX tumor) was 262%, the “Best response: Change from base line (%)” value (LU65 SCLC PDX tumor) was 17% and the GI50 (NCI-H69 SCLC cell line) was 190 nM. The GI50 (38 SCLC cell lines; read-out: GI50 range across the 38 SCLC lines) was no less than 2 nM, the GI50 (38 SCLC cell lines; read-out: median GI50 across the 38 SCLC lines) was 56 nM and the “BMN 673 Sensitivity In vivo Tumor growth” value (NCI-H69 SCLC xenograft) was “No delay”. For the same molecule, the “Best response: Change from base line (%)” value (CTG-0198 SCLC PDX tumor) was −55%, the “BMN 673 Sensitivity In vivo Tumor growth” value (NCI-H209 SCLC xenograft) was “much more sensitive to talazoparib than the H69 model” and the “BMN 673 Sensitivity In vivo Tumor growth” value (NCI-H209 SCLC xenograft; listed as BMN 673, 0.33 mg/kg) was “Delay”. The “Best response: Change from base line (%)” value (LU1267 SCLC PDX tumor) was −30%, the “PDX models designated as progressive disease (PD)” value [1] was “remaining PDX models were resistant” and the “PDX models with 30% or more tumor regression compared to baseline (partial responders, PR)” value [1] was “Three of the 12”. For the same molecule, the “PDX tumors with stable disease (SD)-like responses, tumor growth less than 100% on Day 21 or beyond” value [1] was “three of the 12”, the “Best response: Change from base line (%)” value (LXFS 573 SCLC PDX tumor) was 351% and the “Best response: Change from base line (%)” value (LU67 SCLC PDX tumor) was −29%. The “Best response: Change from base line (%)” value (LXFS 2156 SCLC PDX tumor) was 615%, the “Best response: Change from base line (%)” value (CTG-0199 SCLC PDX tumor) was 318% and the “Best response: Change from base line (%)” value [2] was −95%. For the same molecule, the GI50 (NCI-H1048 SCLC cell line) was 14.4 nM, the GI50 (NCI-H209 SCLC cell line) was 2.03 nM and the “BMN 673 Sensitivity In vivo Tumor growth” value (NCI-H1048 SCLC xenograft) was “much more sensitive to talazoparib than the H69 model”. The “BMN 673 Sensitivity In vivo Tumor growth” value (NCI-H1048 SCLC xenograft; listed as BMN 673, 0.33 mg/kg) was “Delay”, the “Best response: Change from base line (%)” value (LXFS 1129 SCLC PDX tumor) was 260% and the “Best response: Change from base line (%)” value (LXFS 615 SCLC PDX tumor) was 83%. The “Best response: Change from base line (%)” value (LXFS 650 SCLC PDX tumor) was 314%.

— patent US20190054087A1, “TREATMENT OF SMALL CELL LUNG CANCER WITH A PARP INHIBITOR” (priority 2015, published 2019)
